Assay results published in patent US11254668B2, “Pyrazolo[1,5-A]pyrazin-4-yl and related derivatives” (Pfizer Inc., priority 2017, dated 2022).

Assays:
Assay type in all cases: biochemical
JAK1 = JAK1 (Homo sapiens (Human), UniProt P23458); experiment: JAK Caliper Enzyme Assay at 1 mM ATP, JAK1
Procedure, shortened: (§1)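 Recombinant human kinase domains phosphorylate a fluorescent synthetic peptide at 1 mM ATP, room temperature, with enzyme and time tuned for 20-30% conversion; EDTA-stopped. Product/substrate separated by microfluidic mobility shift; percent effect versus DMSO and positive controls fitted to IC50 (nM).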

JAK2 = JAK2 (Homo sapiens (Human), UniProt O60674); experiment: JAK Caliper Enzyme Assay at 1 mM ATP, JAK2
Chain of JAK2 (O60674 849-1124): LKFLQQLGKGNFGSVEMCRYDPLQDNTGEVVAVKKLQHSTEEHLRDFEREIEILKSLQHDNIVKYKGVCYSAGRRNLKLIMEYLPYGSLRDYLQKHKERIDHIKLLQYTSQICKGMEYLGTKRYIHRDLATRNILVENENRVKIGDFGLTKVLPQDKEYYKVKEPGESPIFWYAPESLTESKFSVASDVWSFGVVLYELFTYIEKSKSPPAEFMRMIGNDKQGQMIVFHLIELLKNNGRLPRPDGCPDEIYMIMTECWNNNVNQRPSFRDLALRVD
Procedure, shortened: (§2)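 Read-out is Caliper LabChip mobility-shift separation of phosphorylated from unphosphorylated fluorescent peptide after EDTA termination. Each JAK kinase domain (human, recombinant) runs at 1 mM ATP at room temperature, adjusted for 20–30% turnover. Inhibition is normalized to DMSO and positive-control wells and plotted against concentration.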

TYK2 = TYK2 (Homo sapiens (Human), UniProt P29597); experiment: JAK Caliper Enzyme Assay at 1 mM ATP, TYK2
Chain of TYK2 (P29597 897-1176): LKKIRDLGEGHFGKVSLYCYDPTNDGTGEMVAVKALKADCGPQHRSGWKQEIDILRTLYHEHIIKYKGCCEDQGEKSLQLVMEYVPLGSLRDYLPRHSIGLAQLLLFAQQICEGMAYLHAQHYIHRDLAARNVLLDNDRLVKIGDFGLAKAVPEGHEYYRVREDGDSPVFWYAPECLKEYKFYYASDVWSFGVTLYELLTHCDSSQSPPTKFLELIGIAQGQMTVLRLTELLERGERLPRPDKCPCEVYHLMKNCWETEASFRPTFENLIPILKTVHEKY
Procedure, shortened: as §2

JAK3 = JAK3 (Homo sapiens (Human), UniProt P52333); experiment: JAK Caliper Enzyme Assay at 1 mM ATP, JAK3
Chain of JAK3 (P52333 822-1111): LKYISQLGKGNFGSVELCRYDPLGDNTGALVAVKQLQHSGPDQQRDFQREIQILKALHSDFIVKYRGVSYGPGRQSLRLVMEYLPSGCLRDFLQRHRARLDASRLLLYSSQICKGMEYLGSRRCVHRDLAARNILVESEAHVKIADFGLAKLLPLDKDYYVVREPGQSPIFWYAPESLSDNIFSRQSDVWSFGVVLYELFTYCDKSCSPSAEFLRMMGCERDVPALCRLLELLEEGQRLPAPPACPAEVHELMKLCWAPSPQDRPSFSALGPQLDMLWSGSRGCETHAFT
Procedure, shortened: as §1

Chain of JAK1 (P23458 875-1153): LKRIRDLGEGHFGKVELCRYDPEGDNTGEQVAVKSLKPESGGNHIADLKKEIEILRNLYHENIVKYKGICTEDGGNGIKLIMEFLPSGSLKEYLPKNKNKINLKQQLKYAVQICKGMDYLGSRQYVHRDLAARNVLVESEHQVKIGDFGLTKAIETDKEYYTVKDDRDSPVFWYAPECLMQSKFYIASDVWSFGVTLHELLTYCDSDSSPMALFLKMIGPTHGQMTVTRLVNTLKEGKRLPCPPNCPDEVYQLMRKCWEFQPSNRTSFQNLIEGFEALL

Structure (SMILES) | IC50 (JAK1) [nM] | IC50 (JAK2) [nM] | IC50 (TYK2) [nM] | IC50 (JAK3) [nM]
CO[C@H]1C[C@](CC#N)(n2ccc(-c3nc(-c4c[nH]nc4N)cc4ncccc34)n2)C1 [Example 95, (trans-1-{3-[7-(3-amino-1H-pyrazol-4-yl)-1,6-naphthyridin-5-yl]-1H-pyrazol-1-yl}-3-methoxycyclobutyl)acetonitrile] | 1010 | 354 | 22 | > 10000
CO[C@H]1C[C@](CC#N)(n2ccc(-c3nc(-c4c[nH]nc4N)cc4ncccc34)n2)C1 [Example 96, (cis-1-{3-[7-(3-amino-1H-pyrazol-4-yl)-1,6-naphthyridin-5-yl]-1H-pyrazol-1-yl}-3-methoxycyclobutyl)acetonitrile] | 790 | 243 | 31 | > 10000
Cn1cc(-c2cc3ncccc3c(-c3ccn(C4(CC#N)CN(CC(F)(F)F)C4)n3)n2)cn1 [Example 99, [3-{3-[7-(1-methyl-1H-pyrazol-4-yl)-1,6-naphthyridin-5-yl]-1H-pyrazol-1-yl}-1-(2,2,2-trifluoroethyl)azetidin-3-yl]acetonitrile] | 563 | 133 | 16 | > 10000
Cn1cc(-c2cc3ncccc3c(-c3ccn([C@]4(CC#N)C[C@@H](C#N)C4)n3)n2)cn1 [Example 102, trans-3-(cyanomethyl)-3-{3-[7-(1-methyl-1H-pyrazol-4-yl)-1,6-naphthyridin-5-yl]-1H-pyrazol-1-yl}cyclobutanecarbonitrile] | 591 | 90 | 17 | 9610
Cn1cc(-c2cc3ncccc3c(-c3ccn(C4(CC#N)CN(S(C)(=O)=O)C4)n3)n2)cn1 [Example 104, [3-{3-[7-(1-methyl-1H-pyrazol-4-yl)-1,6-naphthyridin-5-yl]-1H-pyrazol-1-yl}-1-(methylsulfonyl)azetidin-3-yl]acetonitrile] | 1380 | 164 | 19 | > 10000
CCS(=O)(=O)N1CC(CC#N)(n2ccc(-c3nc(-c4cnn(C)c4)cc4ncccc34)n2)C1 [Example 105, [1-(ethylsulfonyl)-3-{3-[7-(1-methyl-1H-pyrazol-4-yl)-1,6-naphthyridin-5-yl]-1H-pyrazol-1-yl}azetidin-3-yl]acetonitrile] | 1350 | 174 | 39 | 8090
CCCS(=O)(=O)N1CC(CC#N)(n2ccc(-c3nc(-c4cnn(C)c4)cc4ncccc34)n2)C1 [Example 106, [3-{3-[7-(1-methyl-1H-pyrazol-4-yl)-1,6-naphthyridin-5-yl]-1H-pyrazol-1-yl}-1-(propylsulfonyl)azetidin-3-yl]acetonitrile] | 5400 | 895 | 138 | > 10000

Now those with a lower IC50 (JAK1), led by results:

IC50 (JAK1) [nM] | IC50 (JAK2) [nM] | IC50 (TYK2) [nM] | IC50 (JAK3) [nM] | Structure (SMILES)
425 | 71 | 14 | > 10000 | Cn1cc(-c2cc3ncccc3c(-c3ccn(C4(CC#N)CN(CC#N)C4)n3)n2)cn1 [Example 100, 2,2′-(3-{3-[7-(1-methyl-1H-pyrazol-4-yl)-1,6-naphthyridin-5-yl]-1H-pyrazol-1-yl}azetidine-1,3-diyl)diacetonitrile]
73 | 33 | 8 | 5250 | N#CC[C@]1(n2ccc(-c3nc(-c4c[nH]nc4N)cc4ncccc34)n2)C[C@H](C#N)C1 [Example 98, trans-3-{3-[7-(3-amino-1H-pyrazol-4-yl)-1,6-naphthyridin-5-yl]-1H-pyrazol-1-yl}-3-(cyanomethyl)cyclobutanecarbonitrile]
12 | 6 | 5 | 735 | N#CC[C@]1(n2ccc(-c3nc(-c4c[nH]nc4N)cc4ncccc34)n2)C[C@@H](C#N)C1 [Example 97, cis-3-{3-[7-(3-amino-1H-pyrazol-4-yl)-1,6-naphthyridin-5-yl]-1H-pyrazol-1-yl}-3-(cyanomethyl)cyclobutanecarbonitrile]
